Consider 13 compounds from ChEMBL document CHEMBL1201862, “PubChem BioAssay data set” (2004).

Common to all, as to assay: NCI-60 cell line screen, 48 h
For assay [1], the system named is HL-60.
Assay [2] concerns NCI-H522.
The subject of assay [3] is OVCAR-4.
Assay [4] has as its system A498.
Assay [5] concerns CCRF-CEM.
In assay [6] the test system is M14.
Assay [7] relates to OVCAR-3.
The subject of assay [8] is U-251.
Assay [9] has as its system KM12.
Assay [10] concerns SNB-75.
Assay [11] concerns MOLT-4.
In assay [12] the test system is UACC-62.
Assay [13] deals with OVCAR-5.
Assay [14] deals with SNB-19.
The test system of assay [15] is COLO 205.
The subject of assay [16] is LXFL 529.

Each structure is given as a SMILES string.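 Each compound was tested at five concentrations against cells in 96-well plates for 48 hours. GI50 marks 50% less growth.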 The source made the active and inactive calls. No stated cut-off is given here; in the data, active = GI50 up to about 1.1 µM and inactive = higher.

On to `COc1cccc2c1C1(O)C2CCCC12OCCCO2` (configuration not stated), for which the GI50 in [1], in assay [2], in assay [3], in [4], in [5] and in assay [6] was > 100 µM (inactive) in each case. In addition, the GI50 in [7], in assay [8], in assay [9], in [10], in [11] and in assay [12] was > 100 µM (inactive) in each case. In addition, the GI50 in [13], in assay [14], in assay [15] and in assay [16] was > 100 µM (inactive) in each case.

Regarding `O=c1nc(-c2ccccc2)c2c3c(cccn13)CCC2`, the GI50 was > 100 µM (inactive) in assay [1]; > 100 µM (inactive) in assay [2]; > 100 µM (inactive) in assay [3]; 92 µM (inactive) in assay [4]; > 100 µM (inactive) in [5]; > 100 µM (inactive) in assay [6]. Further, the GI50 is > 100 µM (inactive) in [7]; > 100 µM (inactive) in assay [8]; > 100 µM (inactive) in [9]; 21.8 µM (inactive) in assay [10]; > 100 µM (inactive) in assay [11]; > 100 µM (inactive) in assay [12]. Also, the GI50 in assay [13], in assay [14] and in [16] was > 100 µM (inactive) throughout.

In the case of `Cc1nc(-n2nc(-c3ccccc3)cc2-c2ccccc2)sc1C(/C=C/c1ccc([N+](=O)[O-])cc1)=N/NC(N)=S`, the GI50 is 4.13 µM (inactive) in [1]; > 100 µM (inactive) in assay [4]; 22.2 µM (inactive) in assay [5]; 43 µM (inactive) in assay [6]; 38.2 µM (inactive) in assay [7]; 47.2 µM (inactive) in [8]. Moreover, the GI50 in [9] was 21.7 µM (inactive); in [10], 20.8 µM (inactive); in assay [11], 13.6 µM (inactive); in assay [12], 54.8 µM (inactive); in [13], 83.6 µM (inactive); in assay [14], > 100 µM (inactive). Moreover, the GI50 is 33.2 µM (inactive) in [15] and 24.1 µM (inactive) in assay [16].

In the case of `Cc1cccc(/C=N/N=C(\N)NO)n1`, the GI50 in assay [1] was 32.4 µM (inactive); in assay [2], 37.8 µM (inactive); in [3], 28.2 µM (inactive); in assay [4], > 100 µM (inactive); in assay [5], 42.5 µM (inactive); in assay [6], 41.5 µM (inactive). Besides, the GI50 is > 100 µM (inactive) in assay [7]; 78.7 µM (inactive) in assay [8]; 14.4 µM (inactive) in [9]; 20.5 µM (inactive) in [10]; 51.4 µM (inactive) in assay [11]; 2.12 µM (inactive) in assay [12]. Moreover, the results for the GI50 in assay [15] and in [16] were > 100 µM (inactive) and 6.52 µM (inactive), respectively.

As to `Nc1ccccc1/C(O)=C1/CCOC1=O`, the GI50 in assay [1], in [2], in assay [3], in assay [4], in assay [5] and in assay [6] was > 100 µM (inactive) in each case. The GI50 in [7], in assay [8], in assay [9], in assay [10], in assay [11] and in [12] was > 100 µM (inactive) throughout. For the same compound, the GI50 in [13], in [14], in assay [15] and in [16] was > 100 µM (inactive) each time.

For `COC(=O)C1Cc2c(n(C)c3ccccc23)C(CCC(=O)O)N1Cc1ccccc1` (configuration not stated), the GI50 was 34.4 µM (inactive) in assay [1]; 22.7 µM (inactive) in assay [2]; 33.7 µM (inactive) in assay [3]; 15.2 µM (inactive) in assay [4]; 25.4 µM (inactive) in [5]; 25.5 µM (inactive) in assay [6]. The GI50 in [7] was 21.1 µM (inactive); in [8], 37.7 µM (inactive); in assay [9] it was 28.4 µM (inactive); in [10], 32.5 µM (inactive); in assay [11], 27.5 µM (inactive); in assay [12] it was 26.6 µM (inactive). For the same compound, the GI50 in [13] is 79.3 µM (inactive); in assay [14], 33.2 µM (inactive); in assay [15], 27 µM (inactive); in assay [16], 37 µM (inactive).

Regarding `O=[N+]([O-])C=C1c2ccccc2-c2ccccc21`, the GI50 is 4.01 µM (inactive) in assay [1]; 3.76 µM (inactive) in assay [2]; 14.2 µM (inactive) in [3]; 19.6 µM (inactive) in assay [4]; 4.91 µM (inactive) in assay [5]; 12.7 µM (inactive) in assay [6]. The GI50 in assay [7] was 15.1 µM (inactive); in assay [8], > 10 µM (inactive); in assay [9] it was 17.3 µM (inactive); in assay [10] it was 25.4 µM (inactive); in [11] it was 3.7 µM (inactive); in assay [13], 17.4 µM (inactive). For the same compound, the GI50 is 23 µM (inactive) in assay [14], 1.86 µM (inactive) in assay [15] and 14.9 µM (inactive) in assay [16].

Turning to `Oc1ncnc2c1nnn2CCCn1nnc2c(O)ncnc21`, the GI50 in assay [1], in [2], in [3], in [4], in assay [5] and in assay [6] was > 100 µM (inactive) each time. Further, the GI50 in assay [7], in assay [8], in assay [9], in assay [11], in assay [12] and in [13] was > 100 µM (inactive) throughout. The GI50 in [14], in assay [15] and in [16] was > 100 µM (inactive) in each case.

In the case of `Cc1cc(-c2ccccc2)nc(Nc2cc3ccccc3[nH]2)n1`, the GI50 in [1], in assay [2], in [3], in [4], in assay [5] and in assay [6] was > 100 µM (inactive) each time. The GI50 in assay [7], in [8], in assay [9], in assay [11], in assay [12] and in assay [13] was > 100 µM (inactive) in each case. Also, the GI50 in assay [14], in assay [15] and in assay [16] was > 100 µM (inactive) in each case.

For `O=C(CC(=O)N1N=C(c2ccccc2)C(/N=N/c2ccc(C(=O)O)cc2)C1=O)Nc1ccc(F)cc1` (configuration not stated), the GI50 in [1] was 22 µM (inactive); in [2] it was 10.4 µM (inactive); in assay [3], 52 µM (inactive); in assay [4], 10.6 µM (inactive); in [6], 38.8 µM (inactive); in assay [7], 14.3 µM (inactive). Also, the GI50 was 1.51 µM (inactive) in assay [10]; 20.5 µM (inactive) in assay [12]; 52.1 µM (inactive) in assay [13]; 36.4 µM (inactive) in assay [14]; 43.8 µM (inactive) in assay [15]; 23.5 µM (inactive) in assay [16].

For the compound `CN(/N=C\c1ccnc2ccccc12)c1ccc([N+](=O)[O-])cc1`, the GI50 in assay [1] was 37.1 µM (inactive); in assay [4] it was > 100 µM (inactive); in assay [5] it was 19.5 µM (inactive); in assay [6], 97.1 µM (inactive); in [7], > 100 µM (inactive); in assay [8], 8.77 µM (inactive). Further, the GI50 was 16 µM (inactive) in [9]; > 100 µM (inactive) in assay [10]; > 100 µM (inactive) in assay [11]; 84.7 µM (inactive) in assay [12]; > 100 µM (inactive) in [13]; > 100 µM (inactive) in assay [14]. The GI50 is > 100 µM (inactive) in assay [15] and 54.8 µM (inactive) in assay [16].

Regarding `O=[N+]([O-])c1nccn1COCCO`, the GI50 in assay [1], in assay [2], in assay [3], in [4], in assay [5] and in assay [6] was > 100 µM (inactive) throughout. The GI50 in assay [8] was > 100 µM (inactive); in assay [9], > 100 µM (inactive); in [10] it was > 100 µM (inactive); in assay [11] it was 0.442 µM (active); in assay [13] it was > 100 µM (inactive); in [14], > 100 µM (inactive). Further, the GI50 in assay [15] and in assay [16] was > 100 µM (inactive) in each case.

`CCCCSC(=CC(=O)c1cccc(C(=O)C=C(SCCCC)SCCCC)n1)SCCCC`: the GI50 in assay [1], in [2], in assay [3], in [4], in assay [5] and in [6] was > 100 µM (inactive) each time. The GI50 is > 100 µM (inactive) in assay [7]; > 100 µM (inactive) in assay [8]; > 100 µM (inactive) in [9]; 88.9 µM (inactive) in [10]; > 100 µM (inactive) in [11]; > 100 µM (inactive) in assay [12]. The GI50 in assay [13], in assay [14], in assay [15] and in assay [16] was > 100 µM (inactive) in each case.
